Measurements as given in patent publication US20230146455A1, “TREATMENT OF INFLAMMATORY DISEASES WITH PEPTIDES AND PHARMACEUTICAL COMPOSITIONS” (Yuyu Pharma, Inc., priority 2020, published 2023).
Several values for one entry are separate records, joined by “and”; a condition that tells them apart may be missing. Equal values may be shown once. Where a SMILES comes first, the peptide text is derived from it. [ ]: non-standard residue; d: D form. Hyp = O=C(O)[C@@H]1C[C@@H](O)CN1

Test system: human PBMCs
Experiment: PBMC cell counts (total, live, viability; trypan blue, Countess) with and without LPS and test articles (Example 9)
Type: cell-based
Procedure: Treatment Human PBMCs were pretreated with YY-101, YDE-011 and YDE-043 or reference compound; Xiidra® at various concentration (ranging from 1 nM to 100 uM) for 2 h before stimulation. An equal volume of 0.5% DMSO was used as a vehicle control. Then, the cells were treated with LPS at 5 ug/ml. The supernatants from treated cells were harvested at 24 h and placed in a 96 well for Luminex cytokine & chemokine profiling using a Luminex 200 multiplex assay (Luminex; R&D system, USA).
The main study arm with triplicate wells per group in a 24-well plate: • 1. Blank • 2. PBMC: 0.5% DMSO • 3. PBMC+LPS (5 ug/ml) • 4. PBMC+YY-101 100 uM • 5. PBMC+YY-101 10 uM • 6. PBMC+YY-101 1 uM • 7. PBMC+YY-101 0.1 uM • 8. PBMC+YY-101 0.01 uM • 9. PBMC+LPS (5 ug/ml)+Xiidra®100 uM • 10. PBMC+LPS (5 ug/ml)+Xiidra® 10 uM • 11. PBMC+LPS (5 ug/ml)+Xiidra® 1 uM • 12. PBMC+LPS (5 ug/ml)+Xiidra®0.1 uM • 13. PBMC+LPS (5 ug/ml)+Xiidra®0.01 uM • 14. PBMC+LPS (5 ug/ml)+Xiidra®0.001 uM • 15. PBMC+LPS (5 ug/ml)+YY-101 100 uM • 16. PBMC+LPS (5 ug/ml)+YY-101 10 uM • 17. PBMC+LPS (5 ug/ml)+YY-101 1 uM • 18. PBMC+LPS (5 ug/ml)+YY-101 0.1 uM • 19. PBMC+LPS (5 ug/ml)+YY-101 0.01 uM • 20. PBMC+LPS (5 ug/ml)+YY-101 0.001 uM • 21. PBMC+LPS (5 ug/ml)+YDE-011 100 uM • 22. PBMC+LPS (5 ug/ml)+YDE-011 10 uM • 23. PBMC+LPS (5 ug/ml)+YDE-011 1 uM • 24. PBMC+LPS (5 ug/ml)+YDE-011 0.1 uM • 25. PBMC+LPS (5 ug/ml)+YDE-011 0.01 uM • 26. PBMC+LPS (5 ug/ml)+YDE-011 0.001 uM • 27. PBMC+LPS (5 ug/ml)+YDE-043 100 uM • 28. PBMC+LPS (5 ug/ml)+YDE-043 10 uM • 29. PBMC+LPS (5 ug/ml)+YDE-043 1 uM • 30. PBMC+LPS (5 ug/ml)+YDE-043 0.1 uM • 31. PBMC+LPS (5 ug/ml)+YDE-043 0.01 uM • 32. PBMC+LPS (5 ug/ml)+YDE-043 0.001 uM
The number of PBMCs was measured after 24 hr of treatment. The culture both and trypan blue were diluted 1:1 and 10 ul was added to Countess cell counting chamber (Thermo fisher, USA). The number of PBMCs was measured using a Countess automated cell counter (Thermo fisher, USA).

[1] = PBMC + LPS(5 ug/ml) + compound 0.001 uM, 24 hr
[2] = PBMC + LPS(5 ug/ml) + compound 0.01 uM, 24 hr
[3] = PBMC + LPS(5 ug/ml) + compound 0.1 uM, 24 hr
[4] = PBMC + LPS(5 ug/ml) + compound 1 uM, 24 hr
[5] = PBMC + LPS(5 ug/ml) + compound 10 uM, 24 hr
[6] = PBMC + LPS(5 ug/ml) + compound 100 uM, 24 hr
[7] = PBMC + LPS(5 ug/ml) + test article 0.001 uM, Mean
[8] = PBMC + LPS(5 ug/ml) + test article 0.001 uM, single replicates
[9] = PBMC + LPS(5 ug/ml) + test article 0.01 uM, Mean
[10] = PBMC + LPS(5 ug/ml) + test article 0.01 uM, single replicates
[11] = PBMC + LPS(5 ug/ml) + test article 0.1 uM, Mean
[12] = PBMC + LPS(5 ug/ml) + test article 0.1 uM, single replicates
[13] = PBMC + LPS(5 ug/ml) + test article 1 uM, Mean
[14] = PBMC + LPS(5 ug/ml) + test article 1 uM, single replicates
[15] = PBMC + LPS(5 ug/ml) + test article 10 uM, Mean
[16] = PBMC + LPS(5 ug/ml) + test article 10 uM, single replicates

`CC(C)C[C@H](NC(=O)CNC(=O)[C@H](CC(C)C)NC(=O)[C@H](CCC(N)=O)NC(=O)CNC(=O)[C@@H]1C[C@@H](O)CN1)C(=O)N[C@@H](C)C(=O)NCC(=O)N1CCC[C@H]1C(=O)N[C@@H](CCCCN)C(=O)O` [YDE-011] (H-[Hyp]GQLGLAGPK-OH) was tested, and the Live cell [1] was 5.4 ± 0.4 10^5/ml, the Total cell [1] was 6.3 ± 0.2 10^5/ml and the Live cell [2] was 5.9 ± 0.4 10^5/ml. The Total cell [2] was 7.3 ± 0.4 10^5/ml, the Live cell [3] was 5.8 ± 0.5 10^5/ml and the Total cell [3] was 7.1 ± 0.7 10^5/ml. The Live cell [4] was 5.0 ± 0.2 10^5/ml, the Total cell [4] was 6.4 ± 0.3 10^5/ml and the Live cell [5] was 5.3 ± 0.3 10^5/ml. For the same molecule, the Total cell [5] was 6.0 ± 0.4 10^5/ml, the Live cell [6] was 6.1 ± 0.0 10^5/ml and the Total cell [6] was 8.2 ± 0.4 10^5/ml. The Live cell [7] was 5.4 10^5/ml, the “Live cell (10^5/ml)” value [7] was 5.4 10^5/ml and the “Live cell, Mean” value [7] was 5.4 10^5/ml. The Live cell (PBMC + LPS(5 ug/ml) + test article 0.001 uM, individual replicates) was 4.5 10^5/ml and 5.8 10^5/ml (2×), the Live cell (PBMC + LPS(5 ug/ml) + test article 0.001 uM, individual replicates (1st, 2nd, 3rd)) was 4.5 10^5/ml and 5.8 10^5/ml (2×) and the Live cell [8] was 4.5 10^5/ml and 5.8 10^5/ml (2×). For the same molecule, the “Live cell (10^5/ml)” value [8] was 4.5 10^5/ml and 5.8 10^5/ml (2×), the Live cell (PBMC + LPS(5 ug/ml) + test article 0.001 uM, single replicates (1st, 2nd, 3rd)) was 4.5 10^5/ml and 5.8 10^5/ml (2×) and the Live cell [9] was 5.9 10^5/ml. For the same molecule, the “Live cell (10^5/ml)” value [9] was 5.9 10^5/ml, the “Live cell, Mean” value [9] was 5.9 10^5/ml and the Live cell (PBMC + LPS(5 ug/ml) + test article 0.01 uM, individual replicates) was 6.2 10^5/ml and 5.1 10^5/ml and 6.3 10^5/ml. For the same molecule, the Live cell (PBMC + LPS(5 ug/ml) + test article 0.01 uM, individual replicates (1st, 2nd, 3rd)) was 6.2 10^5/ml and 5.1 10^5/ml and 6.3 10^5/ml, the Live cell [10] was 6.3 10^5/ml and 6.2 10^5/ml and 5.1 10^5/ml and the “Live cell (10^5/ml)” value [10] was 6.3 10^5/ml and 6.2 10^5/ml and 5.1 10^5/ml. The Live cell (PBMC + LPS(5 ug/ml) + test article 0.01 uM, single replicates (1st, 2nd, 3rd)) was 6.2 10^5/ml and 5.1 10^5/ml and 6.3 10^5/ml, the Live cell [11] was 5.8 10^5/ml and the “Live cell (10^5/ml)” value [11] was 5.8 10^5/ml. For the same molecule, the “Live cell, Mean” value [11] was 5.8 10^5/ml, the Live cell (PBMC + LPS(5 ug/ml) + test article 0.1 uM, individual replicates) was 6.6 10^5/ml and 5.0 10^5/ml and 5.7 10^5/ml and the Live cell (PBMC + LPS(5 ug/ml) + test article 0.1 uM, individual replicates (1st, 2nd, 3rd)) was 6.6 10^5/ml and 5.0 10^5/ml and 5.7 10^5/ml. For the same molecule, the Live cell [12] was 6.6 10^5/ml and 5.0 10^5/ml and 5.7 10^5/ml, the “Live cell (10^5/ml)” value [12] was 6.6 10^5/ml and 5.0 10^5/ml and 5.7 10^5/ml and the Live cell (PBMC + LPS(5 ug/ml) + test article 0.1 uM, single replicates (1st, 2nd, 3rd)) was 6.6 10^5/ml and 5.0 10^5/ml and 5.7 10^5/ml. For the same molecule, the Live cell [13] was 5.0 10^5/ml, the “Live cell (10^5/ml)” value [13] was 5.0 10^5/ml and the “Live cell, Mean” value [13] was 5.0 10^5/ml. The Live cell (PBMC + LPS(5 ug/ml) + test article 1 uM, individual replicates) was 5.5 10^5/ml and 4.8 10^5/ml (2×), the Live cell (PBMC + LPS(5 ug/ml) + test article 1 uM, individual replicates (1st, 2nd, 3rd)) was 5.5 10^5/ml and 4.8 10^5/ml (2×) and the Live cell [14] was 5.5 10^5/ml and 4.8 10^5/ml (2×). For the same molecule, the “Live cell (10^5/ml)” value [14] was 5.5 10^5/ml and 4.8 10^5/ml (2×), the Live cell (PBMC + LPS(5 ug/ml) + test article 1 uM, single replicates (1st, 2nd, 3rd)) was 5.5 10^5/ml and 4.8 10^5/ml (2×) and the Live cell [15] was 5.3 10^5/ml. The “Live cell (10^5/ml)” value [15] was 5.3 10^5/ml, the “Live cell, Mean” value [15] was 5.3 10^5/ml and the Live cell (PBMC + LPS(5 ug/ml) + test article 10 uM, individual replicates) was 5.4 10^5/ml and 5.8 10^5/ml and 4.7 10^5/ml. The Live cell (PBMC + LPS(5 ug/ml) + test article 10 uM, individual replicates (1st, 2nd, 3rd)) was 5.4 10^5/ml and 5.8 10^5/ml and 4.7 10^5/ml, the Live cell [16] was 5.4 10^5/ml and 5.8 10^5/ml and 4.7 10^5/ml and the “Live cell (10^5/ml)” value [16] was 5.4 10^5/ml and 5.8 10^5/ml and 4.7 10^5/ml.
